From patent publication US11712443B2, “17α-monoesters and 17α,21-diesters of cortexolone for use in the treatment of tumors” (COSMO TECHNOLOGIES LTD., priority 2014, dated 2023)

How the values were obtained:
[1] = system: MCF7; assay: In vitro proliferation / cytotoxic assay on breast cancer cells (cell titer glo); conditions: human, 3 days
Description: For the cytotoxic assay: cells seeded in 96 well flat bottom culture plates in media containing charcoal stripped serum. After 24 hours test compounds were added to the cells. DMSO was used as the vehicle negative control and RU486 as the positive control. After 72 hours incubation cell were harvested, lysed and viability determined using the cell titer glow assay for viability.

[2] = In vivo pharmacokinetic in mouse plasma; conditions: mice; iv 20 mg/kg, SC 40 mg/kg, PO 40 mg/kg; after 1 hour
Description: The pharmacokinetic of CB-03-10 was evaluated in plasma of mice after intravenous (IV), subcutaneous (SC) and oral administration (PO).
Mice (3 per group) were administered with the following doses, blood was collected at the indicated times. Plasma samples were analyzed by HPLC-MS/MS.

[3] = system: Panc1; conditions: human, 3 days
[4] = In vitro metabolism in human plasma; assay type: in vitro ADME; conditions: 37 C; liquid chromatography; FIG. 13
Description: (§1) To obtain some insights on the metabolism of CB-03-10 in human and rat plasma, a specific assay was designed. Briefly the compound was incubated at different time in human and rat plasma at 37 C. After incubation the samples were tested for presence of the intact compound by liquid chromatography.

[5] = system: Caspase 8 and Caspase 9; assay: Caspase activity assay in MiaPaca2 cells; assay type: cell-based; conditions: 20 or 50 μM, evident after 8 hours, corrected for viable cells
Description: To better analyze the phenomenon the enzymatic activity of Caspase 8 (initiator caspase for Extrinsic Pathway) and Caspase 9 (initiator caspase for Intrinsic Pathway) and of Caspases 3 and 7 (effector caspases) were measured.

[6] = In vitro metabolism in rat plasma; assay type: in vitro ADME; conditions: 37 C; liquid chromatography; FIG. 13
Description: as §1

[7] = system: BxPC3; conditions: human, 3 days
[8] = system: HT29; assay: MTT colorimetric assay, 72 h; assay type: cell-based; conditions: human, 72 h
Description: The experiment was performed to test and define anticancer activity in vitro of Cortexolone 17α-benzoate and cortexolone 17α-valerate-21-propionate on cell lines representatives of epithelial intestinal tumors, namely HT29. The experiment method consisted in: • 1. Monolayer HT-29 cells were plated in: 96-wells plates at the density of 2×10^4 cells/mL. The cells plated were kept at 37° C. in 5% CO2 and left to attach for 24 h. • 2. […] After 72 h of treatment, the MTT colorimetric assay was performed.

[9] = system: Caspases 8, 9 and 3/7; assay: Caspase activity assay in LNCaP prostate cancer cells; assay type: cell-based; conditions: 24 hours, FIG. 12
Description: After 24 hours test compounds were added to cells, Gemcitabine (a known pancreatic cancer chemotherapeutic agent) and DMSO were used as positive and negative control, respectively. After 8, 24, & 48 hours incubation with test compounds, cells were lysed in buffer containing the caspase 3/7 or 8 or 9 substrate and a stable luciferase in proprietary buffers. The lysates were transferred to white opaque plates before measuring luminescence in a Tecan S afire instrument. Parallel plates treated identically, were used to determine viable cells. All caspase activities were corrected for the number of viable cells.
Same assay was repeated using LNCaP prostate cancer cell lines (FIG. 12). […] The results are shown in FIG. 12 at 24 hours incubation when the caspase activities peaked.

[10] = biological target: T1, Glucocorticoid Receptor (Homo sapiens, UniProt P04150); assay: GR transcriptional reporter assay, antagonist mode; assay type: cell-based; conditions: inhibition of luminescence induced by Dexamethasone; compared to RU486; FIG. 7
T1 construct: endogenous in cells; host or cells: human kidney epithelial cells
T1 sequence (P04150 1-777): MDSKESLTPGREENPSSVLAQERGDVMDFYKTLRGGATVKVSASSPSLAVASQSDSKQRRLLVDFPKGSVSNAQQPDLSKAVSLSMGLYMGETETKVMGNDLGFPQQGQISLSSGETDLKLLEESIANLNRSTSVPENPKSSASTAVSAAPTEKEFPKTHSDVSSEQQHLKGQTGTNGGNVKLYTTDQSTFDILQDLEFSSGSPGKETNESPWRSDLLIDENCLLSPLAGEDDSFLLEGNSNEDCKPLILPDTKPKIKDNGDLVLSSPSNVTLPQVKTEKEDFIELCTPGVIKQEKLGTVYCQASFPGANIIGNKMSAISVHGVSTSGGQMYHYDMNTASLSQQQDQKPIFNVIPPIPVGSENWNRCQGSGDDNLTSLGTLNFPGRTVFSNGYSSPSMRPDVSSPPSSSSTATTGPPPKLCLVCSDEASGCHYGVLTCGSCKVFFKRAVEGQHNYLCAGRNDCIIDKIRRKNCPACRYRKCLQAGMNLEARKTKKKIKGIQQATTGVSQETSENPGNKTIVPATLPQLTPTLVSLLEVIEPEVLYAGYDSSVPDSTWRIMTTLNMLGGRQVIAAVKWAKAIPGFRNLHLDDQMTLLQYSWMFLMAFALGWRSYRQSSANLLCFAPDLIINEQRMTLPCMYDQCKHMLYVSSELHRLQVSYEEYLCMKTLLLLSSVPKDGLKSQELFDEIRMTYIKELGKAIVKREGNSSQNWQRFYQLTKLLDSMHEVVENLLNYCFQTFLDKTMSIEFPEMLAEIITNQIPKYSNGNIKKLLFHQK
Description: The androgen and glucocorticoid hormones elicit divergent and often opposing effects in cells, tissues, and animals. […] CB-03-10 GR antagonist and agonist activities were tested in an in vitro assay. Briefly, human kidney epithelial cells were transfected with DNA construct containing GR binding sites linked to luminescent based reporter molecule. After 24 hours, cells were treated under antagonist or agonist modes. After an additional 24 hours, luminescence which is proportional to GR agonist transcriptional activity was quantitated.
Antagonist Assay was based on inhibition of luminescence induced by Dexamethasone (Dex).
The antagonist activity of CB-03-10 was compared to a known GR antagonist, Mifepristone (also called RU486) as shown in FIG. 7.

[11] = system: MiaPaca2 cells; assay: Apoptosis induction, Annexin V / propidium iodide flow cytometry; assay type: cell-based; conditions: 24 hours; control 11%; FIG. 9
Description: CB-03-10 was evaluated to determine if the mechanism of cytotoxicity on cancer cell lines was mediated by apoptosis and cell cycle arrest. Cancer cell lines were seeded in 6-well flat bottom plates. After 24 hours test compounds or DMSO vehicle (negative control) were added. After an additional 24 hours cells were scraped and stained with fluorescein conjugated Annexin V and propidium iodide and analyzed by flow cytometry.

[12] = system: MiaPaca2 cells; assay: Cell cycle arrest, propidium iodide staining; assay type: cell-based; conditions: 24 hours; FIG. 10
Description: Apoptosis can occur at the G1/S or G2/M transition of the cell cycle. Cells were treated with CB-03-10 for 24 hours then fixed with paraformaldehyde and stained with propidium iodide. […] The lack of G1 block indicates no effect on p53. The S & G2/M blocks may indicate activity on cell cycle check point molecules. For S phase, a possible target is the cyclin dependent kinase 2 (CDK2). Gemzar and cisplatin are example drugs that act in S phase. For G2, a possible target is CDK1.

With `CCCCC(=O)O[C@]1(C(=O)COC(=O)CC)CC[C@H]2[C@@H]3CCC4=CC(=O)CC[C@]4(C)[C@H]3CC[C@@]21C` [CB-03-10, cortexolone 17α-valerate-21-propionate] the “Therapeutic Index = IC50 resting PBMC/IC50 cancer cell” value [1] was 3, the “Therapeutic Index = IC50 stimulated PBMC/IC50 cancer cell” value [1] was 3 and the “plasma level of intact compound” value [2] was “undetectable”. The “TI on Resting PBMC” value [3] was 2, the “TI on Stimulated PBMC” value [3] was 2 and the “Therapeutic Index = IC50 resting PBMC/IC50 cancer cell” value [3] was 2. For the same compound, the “Therapeutic Index = IC50 stimulated PBMC/IC50 cancer cell” value [3] was 2, the “degradation in human plasma” value [4] was “rapidly degraded to CB-03-05 in human plasma” and the “caspase 8 and 9 activity, increase compared to control” value [5] was ≤ 7 fold. For the same compound, the “degradation in rat plasma” value [6] was “degraded more rapidly in rat compared to human plasma”, the “Therapeutic Index = IC50 resting PBMC/IC50 cancer cell” value [7] was 3 and the “Therapeutic Index = IC50 stimulated PBMC/IC50 cancer cell” value [7] was 3. The “Therapeutic Index (TI), Stimulated PBMC” value [8] was 3, the “Initiator (8 and 9) and Effector (3/7) caspase activities” value [9] was “induced Initiator (8 and 9) and Effector (3/7) caspase activities better than Enzalutamide” and the GR antagonist activity [10] was “potent antagonist (10 times less than RU486)”. The “cells in apoptosis (early and late apoptosis), total” value [11] was 28% and the cell cycle arrest [12] was “induces an S phase block at lower concentrations then a G2/M block at higher concentration”.
